The text below walks through data of ChEMBL document CHEMBL1139951, “Synthesis and local anesthetic activity of fluoro-substituted imipramine and its analogues” (Bioorg Med Chem Lett, 2007).

The nature of series [1]: Dissociation constant, pKa by potentiometric titration method. Format: physicochemical.
Series [2] relates to Sciatic nerve. As to the kind of experiment: Anesthetic activity in toad sciatic nerves assessed as sciatic nerve block activity relative to Lidocaine. Format: functional, Bufo bufo. Also noted: unit not given here.
The subject of series [3] is Sciatic nerve. Description: Anesthetic activity in toad sciatic nerves assessed as latent period of sciatic nerve block. Format: functional, Bufo bufo.
Series [4] has as its system Sciatic nerve. As to the kind of experiment: Anesthetic activity in toad sciatic nerves assessed as sciatic nerve block activity. Type of series: functional, Bufo bufo.

For orientation: pKa means the pH at which an ionisable group is half protonated. Turning to `Fc1ccc2c(c1)N(CCCN1CCOCC1)c1cc(F)ccc1CC2`, the pKa in series [1] turned out to be 7.6.

Consider `CCN(CC)CC(=O)Nc1c(C)cccc1C.Cl`, for which the Activity is 100 in the series on Sciatic nerve [2] and 0.019% in the series on Sciatic nerve [4]. Further, in the series on Sciatic nerve [3], the “Latent period of sciatic nerve block” value was 37.2 min.

Molecule `CCN(CC)CCCN1c2cc(F)ccc2CCc2ccc(F)cc21` registered a pKa in series [1] of 7.7.

Regarding `Cl.Fc1ccc2c(c1)N(CCCN1CCCC1)c1cc(F)ccc1CC2`, the Activity in the series with Sciatic nerve [2] is 27.5; with Sciatic nerve [4] it was 0.069%. Also, the “Latent period of sciatic nerve block” value in the series on Sciatic nerve [3] is 40.6 min.

Consider `Cl.Fc1ccc2c(c1)N(CCCN1CCOCC1)c1cc(F)ccc1CC2`, for which the results for the Activity in the series with Sciatic nerve [2] and with Sciatic nerve [4] were 65.5 and 0.029%, respectively. Also, in the series with Sciatic nerve [3], the “Latent period of sciatic nerve block” value was 37.3 min.

In the case of `CN(C)CCCN1c2cc(F)ccc2CCc2ccc(F)cc21.Cl`, the Activity in the series on Sciatic nerve [2] was found to be 20.2; in the series with Sciatic nerve [4] it was 0.094%. Also, in the series on Sciatic nerve [3], the “Latent period of sciatic nerve block” value is given as 30.7 min.

In series [1], `Fc1ccc2c(c1)N(CCCN1CCCCC1)c1cc(F)ccc1CC2` had a pKa of 7.6.

As to `CN(C)CCCN1c2cc(F)ccc2CCc2ccc(F)cc21`, the pKa in series [1] came out at 7.7.

For the molecule `CCN(CC)CCCN1c2cc(F)ccc2CCc2ccc(F)cc21.Cl`, the values for the Activity in the series on Sciatic nerve [2] and in the series on Sciatic nerve [4] were 105.5 and 0.018%, respectively. For the same molecule, the “Latent period of sciatic nerve block” value in the series with Sciatic nerve [3] is 38.2 min.

`Fc1ccc2c(c1)N(CCCN1CCCC1)c1cc(F)ccc1CC2` yielded a pKa in series [1] of 7.9.

On to `Cl.Fc1ccc2c(c1)N(CCCN1CCCCC1)c1cc(F)ccc1CC2`, for which the results for the Activity in the series on Sciatic nerve [2] and with Sciatic nerve [4] were 48.7 and 0.039%, respectively. In the series with Sciatic nerve [3], the “Latent period of sciatic nerve block” value is reported as 39.8 min.
